Converted amounts (≈) assume the structure as drawn. “Also recorded” adds a separate entry of the source. Values belong to the compound of their own block, whether it stands above or below them.
Legend:
[1] = HPLC-RP retention time as measure of β-peptide hydrophobicity; type: physicochemical; conditions: used to sort the β-peptides by hydrophobicity
Description: Fig 1 i. Structures of antifungal β-peptides used in this study. The codification (#number) corresponds to the nomenclature used by Lee et al. in a previous publication. β-peptide (e) is a fluorescently labeled β-peptide. The C-terminus is amidated for all β-peptides. ii. HPLC-RP retention time for the β-peptides synthesized in this work, see Figs A-D in S1 File for further details. TEXT PRINTED IN THE PICTURE: (ii) #4: Retention time tR: 24.5 ± 0.2 min | (ii) #21: Retention time tR: 25.2 ± 0.2 min | (ii) #5: Retention time tR: 25.4 ± 0.1 min | (ii) #16: Retention time tR: 27.4 ± 0.2 min
The experiments compiled here establish structural-functional correlations of the β-peptides as a function of the cytotoxicity in mammalian cells other than erythrocytes.

[2] = tested on: HepG2 cells; assay: cells; type: cell-based, human; conditions: for IC50 HepG2: 24 h
Description: (§1) HepG2 and Caco-2 were tittered from a culture at 70–80% confluence. HepG2 and Caco-2 cells were seeded at 13,000 and 9,000 cells, respectively, in a clear flat bottom 96-well plate with dark walls (Corning, NY, USA). Then they were allowed to adhere and proliferate in DMEM for 48 hours. Agents were prepared under the following conditions: β-peptides were dissolved and diluted in DMEM to the final working concentration; while AmpB and Keto were first dissolved in DMSO as a vehicle. The DMSO concentration was kept under 0.5% v/v in the experimental sample as well as in the untreated control cell media. Cells were exposed to the agent during 24 hours. Afterwards, the cells were washed two times with Hank’s Balanced Salt Solution (HBSS). Then, fresh DMEM was added to each plate and incubated until the control reached approximately 90% confluency. Cell viability was determined using CellTiter Blue™ (Promega, WI, USA), an assay based on the capacity of cells to reduce resazurin to resorufin, a fluorescent product whose intensity is proportional to the viable cells in the sample. […] After incubation, the fluorescence was measured using a Spectra Max Gemini EM spectrofluorometer (560Ex/590Em) (Sunnyvale, CA, USA). The long-term effect of the treatments with β-peptides was assessed using the model peptide (ACHC-β3hV-β3hK) in a clonogenic assay. In these assays, 1.25x10^5 and 9x10^4 cells/ml from HepG2 and Caco-2, respectively, were seeded in a 25cm^2 flask. The media was changed every two days. Once cells reached a confluence between 70–80%, they were treated in the flask with (ACHC-β3hV-β3hK) at 20 μg/mL in DMEM, a sub-lethal concentration, for 24 hours. They were then washed two times with PBS and allowed to recover in fresh medium for six hours, followed by trypsinization and tittering.
(§2) In vitro cytotoxicity assessments for HepG2 and Caco-2 were performed two independent times, each with four replicates (n = 8). A multivariate study of the data was performed through PCA to ascertain the impact of increasing β-peptide hydrophobicity on the viability of the treated cells. PCA was done using XLSTAT 2014 trial version, under a Pearson approach. The input matrix set to the program consisted of eleven rows and four columns of data. The first column contained the concentrations tested and the remainder columns contained the viability ratio obtained after exposure to the β-peptides #4, #5, and #16 (see Fig 1ii). The data of β-peptide #21 was not used in this analysis due to structural differences (lack of ACHC residues), which affects the molecule’s helicity. The ratio IC50/MICaver represents the selectivity of the β-peptides for the fungal cells over that of host cells, termed selectivity index (SI). For the purpose of the present study the SIs were calculated based on MICs for C. albicans published previously.

[3] = tested on: Caco-2 cells; assay: Clonogenic assay, long-term effect; type: cell-based; conditions: Caco-2, 20 μg/mL for 24 hours
Description: as §1
(§3) The long-term cytotoxic effect of β-peptides was evaluated using clonogenic assays (see Fig F in S1 File). In order to validate the data obtained from the dose-response curves for Caco-2 and HepG2, (ACHC-β3hV-β3hK) was selected as a β-peptide model to perform these assays due to its well-established biological activity against C. albicans, its hemolytic activity, and, with this study, its effect on HepG2 and Caco-2. A constant concentration of 20 μg/mL was chosen for these experiments. The chosen concentration of (ACHC-β3hV-β3hK) falls within the range of concentrations used in short-term assays, where 20 μg/mL of this β-peptide assured that both of the cell lines were affected to the same extent.

[4] = tested on: HepG2 cells; assay: Clonogenic assay, long-term effect; type: cell-based; conditions: HepG2, 20 μg/mL for 24 hours
Description: as §1, §3

[5] = tested on: Caco-2 cells; assay: In vitro cytotoxicity, CellTiter Blue viability, dose-effect curves; type: cell-based; conditions: for IC50 Caco-2: 24 h
Description: as §1, §2

[6] = two independent times, each three biological replicates

Structure (SMILES): CC(C)[C@@H](CC(=O)N[C@@H](CCCCN)CC(N)=O)NC(=O)[C@H]1CCCC[C@@H]1NC(=O)C[C@H](CCCCN)NC(=O)C[C@@H](NC(=O)[C@H]1CCCC[C@@H]1NC(=O)C[C@H](CCCCN)NC(=O)C[C@@H](NC(=O)[C@H]1CCCC[C@@H]1N)C(C)C)C(C)C [#4, NH2-(ACHC-β^3hVal-β^3hLys)3]
- Retention time tR [1]: 24.5 ± 0.2 min
- IC50 HepG2 [2]: 38.75 ± 0.89 µg/mL (≈ 33.4 µM)
- surviving fraction (long-term) versus short-term viability; colony forming ability ([3]; listed as (ACHC-β3hV-β3hK)): no significant difference; also recorded: slight decrease in colony forming ability
- plating efficiency of treated cells [3, 6]: > 22%
- surviving fraction (long-term) versus short-term viability [4]: no significant difference
- plating efficiency of treated cells [4, 6]: > 9.5%
- IC50 Caco-2 [5]: 27.33 ± 1.5 µg/mL (≈ 23.6 µM)

- Retention time tR [1]: 25.4 ± 0.1 min
- IC50 HepG2 [2]: 47.25 ± 5.12 µg/mL (≈ 38 µM)
Structure (SMILES): CC(C)[C@@H](CC(=O)N[C@@H](CCCNC(=N)N)CC(N)=O)NC(=O)[C@H]1CCCC[C@@H]1NC(=O)C[C@H](CCCNC(=N)N)NC(=O)C[C@@H](NC(=O)[C@H]1CCCC[C@@H]1NC(=O)C[C@H](CCCNC(=N)N)NC(=O)C[C@@H](NC(=O)[C@H]1CCCC[C@@H]1N)C(C)C)C(C)C [#5, NH2-(ACHC-β^3hVal-β^3hArg)3]
- IC50 Caco-2 [5]: 43.33 ± 9.0 µg/mL (≈ 34.9 µM)

- IC50 HepG2 [2]: 42.5 ± 6.21 µg/mL (≈ 28.7 µM)
Structure (SMILES): NCCCC[C@@H](CC(N)=O)NC(=O)C[C@H](Cc1ccccc1)NC(=O)[C@H]1CCCC[C@@H]1NC(=O)C[C@H](CCCCN)NC(=O)C[C@H](Cc1ccccc1)NC(=O)[C@H]1CCCC[C@@H]1NC(=O)C[C@H](CCCCN)NC(=O)C[C@H](Cc1ccccc1)NC(=O)[C@H]1CCCC[C@@H]1NC(=O)C[C@@H](N)Cc1ccc(O)cc1 [#16, NH2-β^3hTyr-(ACHC-β^3hPhe-β^3hLys)3]
- cytotoxicity towards HepG2, dose-effect curve in words [2]: greatest toxic effect at these lower concentrations

- Retention time tR [1]: 25.2 ± 0.2 min
- IC50 HepG2 [2]: 52.5 ± 4.98 µg/mL (≈ 37.9 µM)
Structure (SMILES): CC(C)[C@@H](CC(=O)N[C@@H](CCCNC(=N)N)CC(=O)N[C@H](CC(=O)N[C@H](CC(=O)N[C@@H](CCCNC(=N)N)CC(=O)N[C@H](CC(=O)N[C@H](CC(=O)N[C@@H](CCCNC(=N)N)CC(N)=O)C(C)C)C(C)C)C(C)C)C(C)C)NC(=O)C[C@@H](NC(=O)C[C@@H](N)Cc1ccc(O)cc1)C(C)C [#21, NH2-β^3hTyr-(β^3hVal-β^3hVal-β^3hArg)3]
- IC50 Caco-2 [5]: 31.33 ± 3.27 µg/mL (≈ 22.6 µM)

Structure (SMILES): C[C@@H]1[C@H](O)[C@@H](C)/C=C/C=C/C=C/C=C/C=C/C=C/C=C/[C@H](O[C@@H]2O[C@H](C)[C@@H](O)[C@H](N)[C@@H]2O)C[C@@H]2O[C@](O)(C[C@@H](O)C[C@@H](O)[C@H](O)CC[C@@H](O)C[C@@H](O)CC(=O)O[C@H]1C)C[C@H](O)[C@H]2C(=O)O [AmpB, Amphotericin B, reference compound]
- cytotoxicity towards HepG2, dose-effect curve in words [2]: did not reach 100% cytotoxicity
- IC30 HepG2 ([2]; 24 hours of exposure, from dose-effect curve): 30 µg/mL (≈ 32.5 µM)
- inhibition at 30 µg/mL ([2]; Homo sapiens, HepG2, 30 μg/mL, 24 hours of exposure): 30%
- cytotoxicity towards Caco-2, dose-effect curve in words ([5]; Caco-2): did not affect the viability

Structure (SMILES): CC(=O)N1CCN(c2ccc(OCC3COC(Cn4ccnc4)(c4ccc(Cl)cc4Cl)O3)cc2)CC1 (stereo not shown) [Keto, ketoconazole, reference compound]
- IC50 ([2]; Homo sapiens, HepG2, 24 hours of exposure, CellTiter Blue, two independent experiments, each four replicates (n = 8)): 70 µg/mL (≈ 132 µM)
- cytotoxicity towards Caco-2, dose-effect curve in words ([5]; 24 hours of exposure, tested concentration range): not statistically different than the response observed for HepG2

Structure (SMILES): COc1ccc2cc(C(=O)NCCOCCOCC(=O)N[C@H]3CCCC[C@@H]3C(=O)N[C@H](CC(=O)N[C@@H](CCCCN)CC(=O)N[C@H]3CCCC[C@@H]3C(=O)N[C@H](CC(=O)N[C@@H](CCCCN)CC(=O)N[C@H]3CCCC[C@@H]3C(=O)N[C@H](CC(=O)N[C@@H](CCCCN)CC(N)=O)C(C)C)C(C)C)C(C)C)c(=O)oc2c1 [coumarin-(ACHC-β3hV-β3hK)]
- effect on viability at 16 μg/mL [2]: does not exert a significant effect on viability

From paper PMC4798767, “Hydrophobicity of Antifungal β-Peptides Is Associated with Their Cytotoxic Effect on In Vitro Human Colon Caco-2 and Liver HepG2 Cells” (PLoS ONE, 2016)
